Assay results: patent US10844058B2, “Valbenazine salts and polymorphs thereof” (Neurocrine Biosciences, Inc., priority 2015, dated 2020)
Where two headings read alike, the source gives them in different places.

Key:
Type in all cases: physicochemical
[1] = Stability to humidity on storage (form by XRPD)
[2] = Thermodynamic aqueous solubility; settings: water, 25 °C, water, thermodynamic from solid, water, 25° C., 24 hours; at the pH of the next column; read-out: Aqueous solubility mg/mL free form
Experimental: The suspension was equilibrated at 25° C. for 24 hours then the pH was measured. The suspension was then filtered through a glass fibre C filter. […] Different volumes of the standard, diluted and undiluted sample solutions were injected.

[3] = Solubility of Form I in aqueous media by HPLC (Example 4); settings: thermodynamic from solid, 22° C.
Experimental: (§1) The vials were shaken. After 1 hr, a sample (˜0.5 ml) was removed via syringe, and filtered through a syringe filter (0.2 micron) into a second vial. 200 μl of each solution was then transferred into an HPLC vial and made up to 1 ml by adding 800 μl of diluent. These samples were analyzed directly by HPLC, and the response was outside the linearity range. Therefore a second dilution was performed, taking 0.1 ml of each sample and making up to 2 ml with diluent. The samples were re-analyzed by HPLC. Then after shaking the suspensions for 18 hours in total, a second sample was taken as above. All samples were then diluted and analyzed by HPLC, as above. The temperature was noted (22° C.), and no gelling was observed.

[4] = Long-term and accelerated stability studies of Form I (Example 6)
Experimental: The storage conditions include the long-term storage condition of 25±2° C./60±5% RH, the intermediate storage condition of 30±2° C./65±5% RH, and the accelerated storage condition of 40±±2° C./75±±5% RH.

[5] = Solubility of Form I in organic solvents by HPLC (Example 4); settings: 22 °C, thermodynamic from solid
Experimental: as §1
The above procedure was repeated but using 8 different organic solvents in place of the aqueous media (analysis only after 18 hrs). Solvents used were acetonitrile, diethyl ether, ethanol, ethyl acetate, isopropanol, methanol, heptane and THF. All solvents gave suspensions at 100 mg/ml, except methanol which dissolved at 100 mg in 0.3 ml. […] These experiments were sampled once after 18 hours of slurrying.

[6] = Solubility of Formula I Form I in solvents, gravimetric analysis of mother liquors (Example 1); settings: organic solvent or mixture, thermodynamic from solid
Experimental: The solubility was calculated by gravimetric analysis after evaporation of the mother liquors collected.

[7] = Gravimetric vapour sorption (GVS)
Experimental: The Gravimetric sorption isotherms were obtained using a Hiden IGASorp moisture sorption analyser, controlled by CFRSorp software. The sample temperature was maintained at 25° C. by a Huber re-circulating water bath. The humidity was controlled by mixing streams of dry and wet nitrogen, with a total flow rate of 250 ml/min. The relative humidity (RH) was measured by a calibrated Vaisala RH probe (dynamic range of 0-95% RH), located near the sample. The weight change, (mass relaxation) of the sample as a function of % RH was constantly monitored by the microbalance (accuracy 0.001 mg). Typically 10-20 mg of sample was placed in a tared mesh stainless steel basket at room temperature. The sample was loaded and unloaded at 40% RH and 25° C. (typical room conditions). The standard isotherm was performed at 25° C. at 10% RH intervals over a 0-90% RH range.

[8] = aqueous media, aqueous buffer, Aqueous pH 6.8
[9] = aqueous media, simulated gastric fluid, Aqueous pH 1.2
[10] = aqueous medium, aqueous buffer, Aqueous pH 4
[11] = aqueous medium, aqueous buffer, Aqueous pH 5

Stability to humidity 25° C./92% RH ([1]; 25° C./92% RH): unchanged
Stability to humidity 40° C./75% RH ([1]; 40° C./75% RH): unchanged
solubility at 24 h [2]: 15 mg/mL
solubility at 1 h ([3]; aqueous media, aqueous buffer, Aqueous pH 3): 28.4 mg/mL
solubility at 1 h [3, 8]: 34 mg/mL
solubility at 18 h [3, 8]: 35.4 mg/mL
solubility at 1 h [3, 9]: 31.6 mg/mL
solubility at 18 h [3, 9]: 33.2 mg/mL
solubility at 18 h ([3]; aqueous medium, aqueous buffer, Aqueous pH 3): 28 mg/mL
solubility at 1 h [3, 10]: 28.1 mg/mL
solubility at 18 h [3, 10]: 27.8 mg/mL
solubility at 1 h [3, 11]: 18.6 mg/mL
solubility at 18 h [3, 11]: 27.9 mg/mL
Stability on storage ([4]; about 25° C. and about 60% relative humidity for about 24 months): stable
Stability on storage ([4]; about 40° C. and about 75% relative humidity for about 6 months): stable
Stability on storage ([4]; accelerated storage condition 40° C./75% RH, 3 months): chemical and physical stability
Stability on storage ([4]; long-term storage condition 25° C./60% RH, up to 3 months): chemical and physical stability
solubility at 18 h ([5]; organic solvent or mixture, Acetonitrile): 1.36 mg/mL
solubility at 18 h ([5]; organic solvent or mixture, Diethyl ether): 0.01 mg/mL
solubility at 18 h ([5]; organic solvent or mixture, Ethanol): 35.5 mg/mL
solubility at 18 h ([5]; organic solvent or mixture, Ethyl acetate): 0.04 mg/mL
solubility at 18 h ([5]; organic solvent or mixture, Heptane): 0.003 mg/mL
solubility at 18 h ([5]; organic solvent or mixture, Isopropanol): 1.15 mg/mL
solubility at 18 h ([5]; organic solvent or mixture, Methanol): 481 mg/mL
solubility at 18 h ([5]; organic solvent or mixture, THF): 0.05 mg/mL
solubility at 18 h ([5]; Water): 28.2 mg/mL
solubility ([6]; 55 °C, MeOH (boiling point 65), 10° C. below reflux, read-out: Solubility at high temperature): > 250 mg/mL
solubility ([6]; 56 °C, THF (boiling point 66), 10° C. below reflux, read-out: Solubility at high temperature): 6 mg/mL
solubility ([6]; 67 °C, Ethyl Acetate (boiling point 77), 10° C. below reflux, read-out: Solubility at high temperature): 2 mg/mL
solubility ([6]; 68 °C, EtOH (boiling point 78), 10° C. below reflux, read-out: Solubility at high temperature): 212 mg/mL
solubility ([6]; 70 °C, MEK (boiling point 80), 10° C. below reflux, read-out: Solubility at high temperature): 4 mg/mL
solubility ([6]; 71 °C, Acetonitrile (boiling point 81), 10° C. below reflux, read-out: Solubility at high temperature): 48 mg/mL
solubility ([6]; 79 °C, IPA (boiling point 89), 10° C. below reflux, read-out: Solubility at high temperature): 22 mg/mL
solubility ([6]; 79 °C, Isopropyl Acetate (boiling point 89), 10° C. below reflux, read-out: Solubility at high temperature): 4 mg/mL
solubility ([6]; 88 °C, 1-propanol (boiling point 98), 10° C. below reflux, read-out: Solubility at high temperature): 160 mg/mL
solubility ([6]; 107 °C, MIBK (boiling point 117), 10° C. below reflux, read-out: Solubility at high temperature): 5 mg/mL
solubility ([6]; 1-propanol, 5° C., read-out: Solubility at 5° C. temperature): 8 mg/mL
solubility ([6]; Acetone, 5° C., read-out: Solubility at 5° C. temperature): 5 mg/mL
solubility ([6]; Acetonitrile, 5° C., read-out: Solubility at 5° C. temperature): 17 mg/mL
solubility ([6]; EtOH, 5° C., read-out: Solubility at 5° C. temperature): 24 mg/mL
solubility ([6]; Ethyl Acetate, 5° C., read-out: Solubility at 5° C. temperature): 1 mg/mL
solubility ([6]; IPA, 5° C., read-out: Solubility at 5° C. temperature): 5 mg/mL
solubility ([6]; Isopropyl Acetate, 5° C., read-out: Solubility at 5° C. temperature): 4 mg/mL
solubility ([6]; MEK, 5° C., read-out: Solubility at 5° C. temperature): 3 mg/mL
solubility ([6]; MIBK, 5° C., read-out: Solubility at 5° C. temperature): 6 mg/mL
solubility ([6]; MeOH, 5° C., read-out: Solubility at 5° C. temperature): > 250 mg/mL
solubility ([6]; THF, 5° C., read-out: Solubility at 5° C. temperature): 4 mg/mL
Stability to humidity GVS uptake ([7]; 25° C.): 1.0%
GVS mass increase ([7]; relative humidity from about 0% to about 95%, di(4-methylbenzenesulfonate)): less than 1%
Structure (SMILES): COc1cc2c(cc1OC)[C@H]1C[C@@H](OC(=O)[C@@H](N)C(C)C)[C@H](CC(C)C)CN1CC2.Cc1ccc(S(=O)(=O)O)cc1.Cc1ccc(S(=O)(=O)O)cc1 [Form I, (S)-(2R,3R,11bR)-3-isobutyl-9,10-dimethoxy-2,3,4,6,7,11b-hexahydro-1H-pyrido[2,1-a]isoquinolin-2-yl 2-amino-3-methylbutanoate di(4-methylbenzenesulfonate)]
